# Test results published in ChEMBL document CHEMBL3112568, “Synthesis, antifungal activities and molecular docking studies of novel 2-(2,4-difluorophenyl)-2-hydroxy-3-(1H-1,2,4-triazol-1-yl)propyl dithiocarbamates” (2014).
# How the values were obtained:
# Assay type in all cases: functional
# Nakaseomyces glabratus = assay: Antifungal activity against Candida glabrata by micro-broth dilution method
# Candida albicans [1] = assay: Antifungal activity against Candida albicans SC5314 after 24 hrs by micro-broth dilution method; conditions: SC5314, 24 h
# Aspergillus fumigatus = assay: Antifungal activity against Aspergillus fumigatus by micro-broth dilution method
# Nannizzia gypsea = assay: Antifungal activity against Microsporum gypseum by micro-broth dilution method
# Candida albicans [2] = assay: Antifungal activity against Candida albicans Y0109 after 24 hrs by micro-broth dilution method; conditions: Y0109, 24 h
# Trichophyton rubrum = assay: Antifungal activity against Trichophyton rubrum by micro-broth dilution method
# Cryptococcus neoformans = assay: Antifungal activity against Cryptococcus neoformans after 72 hrs by micro-broth dilution method
# Candida parapsilosis = assay: Antifungal activity against Candida parapsilosis by micro-broth dilution method; conditions: Lodderomyces parapsilosis
MIC80 (Nakaseomyces glabratus),MIC80 (Candida albicans [1]),MIC80 (Aspergillus fumigatus),MIC80 (Nannizzia gypsea),MIC80 (Candida albicans [2]),MIC80 (Trichophyton rubrum),MIC80 (Cryptococcus neoformans),MIC80 (Candida parapsilosis),SMILES
8 µg/mL,0.5 µg/mL,> 64 µg/mL,32 µg/mL,1 µg/mL,0.5 µg/mL,16 µg/mL,8 µg/mL,OC(CSC(=S)NCc1ccccc1)(Cn1cncn1)c1ccc(F)cc1F (racemic)
2 µg/mL,1 µg/mL,> 64 µg/mL,> 64 µg/mL,1 µg/mL,4 µg/mL,64 µg/mL,> 64 µg/mL,CNC(=S)SCC(O)(Cn1cncn1)c1ccc(F)cc1F (racemic)
4 µg/mL,0.5 µg/mL,> 64 µg/mL,64 µg/mL,0.5 µg/mL,64 µg/mL,64 µg/mL,2 µg/mL,C=CCNC(=S)SCC(O)(Cn1cncn1)c1ccc(F)cc1F (racemic)
≤ 0.125 µg/mL,≤ 0.125 µg/mL,16 µg/mL,8 µg/mL,≤ 0.125 µg/mL,8 µg/mL,≤ 0.125 µg/mL,0.5 µg/mL,OC(CSC(=S)N1CCCCC1)(Cn1cncn1)c1ccc(F)cc1F (racemic)
0.5 µg/mL,0.5 µg/mL,64 µg/mL,2 µg/mL,0.25 µg/mL,2 µg/mL,1 µg/mL,32 µg/mL,CN(C(=S)SCC(O)(Cn1cncn1)c1ccc(F)cc1F)c1ccccc1 (racemic)
4 µg/mL,1 µg/mL,> 64 µg/mL,> 64 µg/mL,1 µg/mL,4 µg/mL,64 µg/mL,> 64 µg/mL,CCNC(=S)SCC(O)(Cn1cncn1)c1ccc(F)cc1F (racemic)
0.25 µg/mL,0.25 µg/mL,16 µg/mL,> 64 µg/mL,0.25 µg/mL,> 64 µg/mL,1 µg/mL,0.5 µg/mL,CN(Cc1ccccc1)C(=S)SCC(O)(Cn1cncn1)c1ccc(F)cc1F (racemic)

# The next lines start with the molecule.
SMILES,MIC80 (Nakaseomyces glabratus),MIC80 (Candida albicans [1]),MIC80 (Aspergillus fumigatus),MIC80 (Nannizzia gypsea),MIC80 (Candida albicans [2]),MIC80 (Trichophyton rubrum),MIC80 (Cryptococcus neoformans),MIC80 (Candida parapsilosis)
COc1ccc(N2CCN(C(=S)SCC(O)(Cn3cncn3)c3ccc(F)cc3F)CC2)cc1 (racemic),≤ 0.125 µg/mL,≤ 0.125 µg/mL,8 µg/mL,2 µg/mL,≤ 0.125 µg/mL,1 µg/mL,0.25 µg/mL,0.25 µg/mL
CCC(C)n1ncn(-c2ccc(N3CCN(c4ccc(OCC5COC(Cn6cncn6)(c6ccc(Cl)cc6Cl)O5)cc4)CC3)cc2)c1=O (stereo unspecified) [ITRACONAZOLE],1 µg/mL,4 µg/mL,8 µg/mL,4 µg/mL,8 µg/mL,4 µg/mL,4 µg/mL,8 µg/mL
OCCN(Cc1ccccc1)C(=S)SCC(O)(Cn1cncn1)c1ccc(F)cc1F (racemic),≤ 0.125 µg/mL,0.25 µg/mL,> 64 µg/mL,32 µg/mL,0.25 µg/mL,2 µg/mL,2 µg/mL,0.25 µg/mL
OC(CSC(=S)N1CCN(c2ccccc2)CC1)(Cn1cncn1)c1ccc(F)cc1F (racemic),≤ 0.125 µg/mL,0.25 µg/mL,4 µg/mL,2 µg/mL,0.25 µg/mL,2 µg/mL,≤ 0.125 µg/mL,0.25 µg/mL
OC(CSC(=S)N1CCN(Cc2ccccc2)CC1)(Cn1cncn1)c1ccc(F)cc1F (racemic),0.25 µg/mL,≤ 0.125 µg/mL,4 µg/mL,2 µg/mL,≤ 0.125 µg/mL,2 µg/mL,0.25 µg/mL,1 µg/mL
